Measurements reported in patent publication US20090142846A1, “METHODS FOR MEASURING BIOCHEMICAL REACTIONS” (EKSIGENT TECHNOLOGIES, LLC, priority 2005, published 2009).
Like-named read-outs stand apart in the source and are kept apart here.

Assays:
[1] = target: P. falciparum LDH (Plasmodium falciparum, UniProt Q27743); experiment: Fluorescence-coupled LDH enzyme assay on microfluidics system with continuously variable concentration gradient; format: biochemical
Excerpt: A fluorescence-coupled enzyme assay was developed using a microfluidics system described herein for creating a continuously variable concentration gradient to monitor the reduction of NAD^+ by the enzyme LDH to give a fluorescent end product. This system was then adapted to measure potency and determine mechanism of inhibition by various inhibitors of LDH.
One of the products of the reaction in the assay, NADH, is coupled to Thermus thermophilus NADH oxidase to generate H2O2, which in turn is coupled to horseraddish peroxidase which reacts with […] and amplex red (Molecular Probes, Inc., Eugene, Oreg., U.S.A.) to give the fluorescent product resorufin. […]
The novel data analysis techniques described herein for determining the mechanism of inhibition of an inhibitor (or mechanism of activation of an activator) are applied to the data produced from the microfluidics system. The titration of the enzyme with a continuous linear variation of inhibitor and substrate from zero to a pre-determined finite concentration yields a characteristic rate profile that is defined by the specific type of interaction of the inhibitor and enzyme with respect to the substrate. […]
The titration of LDH with a linear gradient of NAD^+ was performed on the microfluidics system described herein with the change in relative fluorescence intensity monitored under initial rate conditions. […]

[2] = target: rabbit muscle lactate dehydrogenase (LDH) (Oryctolagus cuniculus, UniProt P13491); experiment: Continuous variation method on a microtiter plate (step concentration gradients); format: biochemical; details: limited data
Excerpt: Determination of the mechanism of inhibition by the inhibitor oxalate with respect to the substrate NAD^+ against the enzyme rabbit muscle lactate dehydrogenase (LDH) using a microtiter plate to generate individual step concentration gradients was attempted. FIG. 49 is a graph showing the results of the experiment. An attempt to determine the mechanism of inhibition by the inhibitor oxalate with respect to the substrate lactate against the enzyme rabbit muscle LDH using a microtiter plate to generate individual step concentration gradients was attempted. FIG. 50 is a graph showing the results of this experiment.

[3] = tested on: LDH; details: cited from earlier work

Chain of P. falciparum LDH (Q27743 whole entry): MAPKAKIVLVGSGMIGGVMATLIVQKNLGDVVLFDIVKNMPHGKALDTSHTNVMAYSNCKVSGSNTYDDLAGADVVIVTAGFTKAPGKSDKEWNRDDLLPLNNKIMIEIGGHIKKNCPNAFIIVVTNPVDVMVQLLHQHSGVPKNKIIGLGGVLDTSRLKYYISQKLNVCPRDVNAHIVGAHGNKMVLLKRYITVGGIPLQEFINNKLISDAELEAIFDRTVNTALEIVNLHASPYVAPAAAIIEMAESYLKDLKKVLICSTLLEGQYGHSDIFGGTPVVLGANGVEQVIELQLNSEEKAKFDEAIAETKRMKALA

Structure (SMILES) | Km ([1]; titration of LDH with linear gradient of NAD^+, initial rate conditions) [µM] | mechanism of inhibition ([1]; with respect to substrate NAD^+) | mechanism of inhibition ([2]; with respect to NAD^+, ambiguous) | mechanism of inhibition ([2]; with respect to lactate) | inhibition mechanism ([3]; with respect to NAD^+) | inhibition mechanism ([3]; with respect to lactate, reported previously)
NC(=O)c1ccc[n+]([C@@H]2O[C@H](COP(=O)([O-])OP(=O)(O)OC[C@H]3O[C@@H](n4cnc5c(N)ncnc54)[C@H](O)[C@@H]3O)[C@@H](O)[C@H]2O)c1 [NAD^+] | 54 ± 2 | – | – | – | – | –
O=C(O)C(=O)O [oxalate] | – | uncompetitive inhibition | uncompetitive inhibitor | competitive inhibitor | uncompetitive | competitive inhibitor
